# How the values were obtained:
# [1] = tested on: AAV10; assay: AAV10/Luc infection of HEK293 cells, luciferase readout; type: cell-based, adeno-associated virus; settings: AAV10, CC pre-treatment, MOI 2000
# Experimental: (§1) Method: Day 0: • 1. Remove culture medium (DMEM supplemented with 10% heat-inactivated FBS and 1% penicillin/streptomycin) from HEK293 cell culture, gently wash cells twice with 100 μL of PBS. Cells should be at low passage and approximately 80% confluent without being overgrown. Harvest cells by trypsinization and perform a cell count. • 2. Resuspend cells in complete DMEM culture medium at 200,000 cells/mL. Seed cells in 96-well plates with black or white walls and clear bottoms: 20,000 cells/well in 100 μL of complete media. • 3. Incubate cells overnight in C02 incubator at 37° C. Day 1: • 1. Confirm microscopically that cells are 50-80% confluent. • 2. […] Each dilution was analyzed at least in triplicate. […] Set up spectrophotometer to read chemiluminescence. If the spectrophotometer is BioTek the read conditions are: 500 ms, gain 125-135, height of plate 3.75 mm. Add 50 μL of Bright Glo substrate to each well, incubate plate 3 min in the dark and then read. For maximal light intensity, samples should be measured within 15 minutes of reagent addition.
# (§2) The dramatic improvement of AAV8 transduction in vitro in the presence of CC prompted test to determine if similar effect could be achieved for other AAV serotypes. The transduction efficiency of ten common AAV serotypes at MOI 2000 vg/cell was analyzed. […]
# [2] = tested on: AAV8; assay: AAV8-Luc infection of HEK293 cells, luciferase readout; type: cell-based, adeno-associated virus; settings: at least one model system, cells pretreated
# Experimental: (§3) HEK293 cells were infected with AAV8-Luciferase (Luc) or AAV2-Luc at an MOI of 5000 in the presence of several pharmacologically active drugs (TNFα+LPS, TNFα+IL-6, dorsomorphin (also known as “Compound C” or “CC”), SP600125, or rosiglitazone). The drugs were added 1 hour before injection with AAV-Luc. 24 hours after AAV-Luc was added, luciferase was detected, as further described in Example 2.
# as §1, with “1.” for “1. Confirm microscopically that cells are 50-80% confluent. • 2.”, “addition. […]” for “addition.”
# [3] = tested on: HEK293 cells; assay: Cytotoxicity of the drug to the cells to be infected; type: cell-based
# [4] = tested on: AAV2; assay: AAV2-Luc infection of HEK293 cells, luciferase readout; type: cell-based, adeno-associated virus; settings: AAV2, CC pre-treatment, 48 hours, MOI 2000
# Experimental: as §3
# as §1, with “count.” for “count. • 2. Resuspend cells in complete DMEM culture medium at 200,000 cells/mL. Seed cells in 96-well plates with black or white walls and clear bottoms: 20,000 cells/well in 100 μL of complete media. • 3. Incubate cells overnight in C02 incubator at 37° C. Day 1: • 1. Confirm microscopically that cells are 50-80% confluent.”
# as §2
compound,measurement,setting,value
c1cc(-c2cnn3cc(-c4ccc(OCCN5CCCCC5)cc4)cnc23)ccn1 [dorsomorphin],"luciferase activity, times higher than background",[1],8 times
same,CC pretreatment concentration giving statistically significant increase in activity of AAV/Luc,[2],at least 2.5 μM
same,cytotoxic effects,[3]; HEK293 infected with AAV2/AAV8,without cytotoxic effects
same,CC concentration that became toxic to cells,[3]; at least one model system,higher than 20 μM
same,"luciferase activity, times higher than background",[4],more than 1000 times
